# Measured values from patent US20210361618A1, “TRIPLET COMBINATION FORMULATIONS AND METHODS FOR TREATING OR REDUCING THE RISK OF CARDIOVASCULAR DISEASE” (priority 2017, published 2021).
# What was measured:
# LDL-C = assay: Integrated analysis of six Phase 2 studies of Bempedoic acid; format: in vivo, human; settings: for LDL-C placebo-adjusted LS means for percent change from baseline: integrated analysis of six Phase 2 studies
# Procedure: Doses of Bempedoic acid ranging from 40 to 240 mg/day have been evaluated in the Phase 2 program. Based on data from the integrated analysis of safety and efficacy, observed values and percent change from baseline in the primary efficacy endpoint, LDL-C, together with a positive safety profile, support the choice of the 180-mg dose for the Phase 3 studies. […] Overall, balancing efficacy and safety, the 180-mg dose was chosen for the Phase 3 program.
# patients = assay: Phase 1 and 2 clinical trials of bempedoic acid: adverse events of special interest; format: in vivo, human; settings: Phase 1 or 2 clinical trials to date
# monkey = assay: Preclinical monkey studies (hypoglycemia and metabolic acidosis)
compound,measurement,setting,value
"CC(C)(CCCCCC(O)CCCCCC(C)(C)C(=O)O)C(=O)O [Bempedoic acid, 8-hydroxy-2,2,14,14 tetramethylpentadecanedioic acid]",safety profile of the 180-mg dose,"LDL-C; Phase 2 program, 180 mg",excellent safety profile
same,LDL-C placebo-adjusted LS means for percent change from baseline,LDL-C; 180 mg on top of stable statin therapy,~22%
same,LDL-C placebo-adjusted LS means for percent change from baseline,"LDL-C; Bempedoic acid 180 mg, monotherapy or with Ezetimibe 10 mg",approximately 32%
same,cases of hypoglycemia or metabolic acidosis,patients,No cases
same,outcome of hypoglycemia and metabolic acidosis,monkey,monkey deaths
